Test results: paper PMC7822874, “Chemoprotective antimalarials identified through quantitative high-throughput screening of Plasmodium blood and liver stage parasites” (Scientific Reports, 2021)

test: in vitro; conditions: human, hepg2-a16-cd81egfp cells

For C[n+]1c2ccccc2nc2ccc(NCCO)cc21.[O-][Cl+3]([O-])([O-])[O-] [MLS001164888], the viability at 3 µM was 97.2%.

same assay, conditions: human, hepg2-a16-cd81egfp cells, % viability

Going from CCCC(C)C(=O)Nc1ncc(S(=O)(=O)c2ccc([N+](=O)[O-])cc2)s1 (centres unmarked) [MLS001034555] to COc1ccc(NC(=O)C(c2ccc(Cl)cc2)C(C)C)cn1 (centres unmarked) [MLS001149289], the viability at 3 µM falls from 94% to 88.5%.

Going from O=C(CSc1nc(Nc2ccccc2)nc(N2CCOCC2)n1)Nc1cc(Cl)ccc1O [MLS001035450] to OC(c1ccc(Cl)cc1)C(CN1CCOCC1)c1ccccc1 (centres unmarked) [MLS001173582], the viability at 3 µM rises from 85.3% to 99.6%.

Going from O=C1c2ccccc2-n2c1nc1ccccc1c2=O [MLS001049121] to COc1cc(NS(C)(=O)=O)ccc1Nc1c2ccccc2nc2ccccc12 [MLS002153376], the viability at 3 µM rises from 81.6% to 84.3%.

First: CNc1ccc2oc(C[C@H]3O[C@@]4(CC[C@H]3C)O[C@H]([C@H](C)C(=O)c3ccc[nH]3)[C@H](C)C[C@H]4C)nc2c1C(=O)O [MLS001056783]
Second: CCOC(=O)c1c(CN2CCN(c3ccccc3)CC2)oc2cc(Br)c(O)cc12 [MLS001198242]
The viability at 3 µM of the first is lower: 19.2% for the first, 90.6% for the second.

Compared with COc1ccc(-n2nc3c(c2NC(=O)CCl)CSC3)cc1 [MLS001066697], COc1ccc2nc(N3CCN(C(=O)c4ccc([N+](=O)[O-])o4)CC3)sc2c1 [MLS001234236] is lower in viability at 3 µM: 98.9% for the first, 89.3% for the second.

Going from COc1cccc(NC(=O)CN(C)C(=O)c2ccc(-c3cccc(C(F)(F)F)c3)o2)c1 [MLS001071804] to CN(CC(=O)Nc1cccc(F)c1)C(=O)c1ccc(-c2ccc(Cl)cc2)o1 [MLS001078811], the viability at 3 µM rises from 90.3% to 105%.

Compared with O=C(Nc1ncccc1O)c1ccc(S(=O)(=O)Nc2ccccc2)cc1 [MLS001099437], Cc1ccnc(NC(=O)c2cccc(S(=O)(=O)N3CCCc4ccccc43)c2)c1 [MLS001159724] is lower in viability at 3 µM: 94.2% for the first, 89.6% for the second.

Going from Cc1ccc(S(=O)(=O)n2nccc2-c2c(-c3ccc(Cl)cc3)noc2C)cc1 [MLS001111122] to Cc1ccc(-c2c(C(=O)N/N=C/c3cccc(Cl)c3)nnn2-c2nonc2N)cc1 [MLS001139410], the viability at 3 µM falls from 101% to 92.2%.

First: CCCCN(C(=O)c1cccc(S(=O)(=O)N(C)c2ccc(C)cc2)c1)c1c(N)n(CCCC)c(=O)[nH]c1=O [MLS001128188]
Second: CCCCCCSc1ccc([C@H]2N[C@@](Cc3ccccc3)(C(=O)OC)[C@H]3C(=O)N(CC)C(=O)[C@@H]23)cc1 [MLS001362744]
The viability at 3 µM of the first is lower: 91.7% for the first, 91.8% for the second.

First: COc1cccc(NC(=O)CN(C)C(=O)c2oc3c(ccc4ccccc43)c2C)c1 [MLS001142056]
Second: Cc1cc(OC(C)C(=O)NCCc2c[nH]c3ccccc23)c2c(C)cc(=O)oc2c1 (centres unmarked) [MLS001158613]
The viability at 3 µM of the first is higher: 101% for the first, 92.7% for the second.

Compared with Nc1nonc1-n1nnc(C(=O)N/N=C/c2ccc(Br)cc2)c1-c1ccc2c(c1)OCO2 [MLS001142619], Nc1nonc1-n1nnc(C(=O)N/N=C/c2ccc(Cl)cc2)c1-c1ccc2c(c1)OCO2 [MLS001142698] is higher in viability at 3 µM: 89.5% for the first, 104% for the second.

First: Cc1ccc(/C=N/NC(=O)c2nnn(-c3nonc3N)c2-c2ccc3c(c2)OCO3)s1 [MLS001142659]
Second: Cc1ccc(Nc2nnc(SCC(=O)c3ccc(O)cc3O)s2)cc1 [MLS001176347]
The viability at 3 µM of the first is lower: 90.4% for the first, 99.9% for the second.

Going from CCOc1cc(C(=O)N2CCC(CC3CC(c4ccc(Cl)cc4)=NO3)(C(=O)NCC3CCCCC3)CC2)cc(OCC)c1OCC (centres unmarked) [MLS001143937] to CCOc1ccc(CCNC(=O)Nc2ccccc2)cc1OCC [MLS001197603], the viability at 3 µM rises from 93.2% to 99.4%.

Going from CCCCc1cc(=O)oc2cc(C)cc(OCC(=O)Nc3cccnc3)c12 [MLS001160046] to CCN(CC)CCOC(=O)c1ccc(N/C=C(/C#N)c2nc(-c3cc4ccccc4oc3=O)cs2)cc1 [MLS001164950], the viability at 3 µM rises from 96.3% to 105%.

Compared with CC(Oc1ccc(F)cc1)C(=O)Nc1cc(C(F)(F)F)ccc1-n1cncn1 (centres unmarked) [MLS001160637], COc1ccc2nc(C)cc(NCc3cccc(C(F)(F)F)c3)c2c1 [MLS001174340] is lower in viability at 3 µM: 101% for the first, 95.4% for the second.

Going from CC1CC(C)CN(C(=O)c2ccc3ccccc3c2)C1 (centres unmarked) [MLS001161774] to Oc1ccc(-c2ccccc2)cc1CN1CCCCCC1 [MLS001195126], the viability at 3 µM rises from 90.9% to 104%.

Going from COc1cnc(-c2ccccn2)nc1N(C)c1ccccc1 [MLS001166302] to COc1ccccc1C1CC(c2ccccc2)=NN1C(=O)c1ccccc1 (centres unmarked) [MLS001197331], the viability at 3 µM rises from 90.7% to 96.5%.

Compared with Cc1nnsc1[S+]([O-])c1ccc(Cl)cc1 (centres unmarked) [MLS001166465], CCCCN(CC)CCNC(=O)c1cc2c(-c3ccc(Cl)cc3)nn(C)c2s1 [MLS001199341] is lower in viability at 3 µM: 96.9% for the first, 90.6% for the second.

Going from CCOC(=O)C1CCN(Cc2cc(Cl)c3ccccc3c2O)CC1 [MLS001171913] to Cc1cc(O)c(CN2CCN(S(=O)(=O)c3cccs3)CC2)cc1C(C)C [MLS002157185], the viability at 3 µM rises from 87.1% to 92.3%.

Compared with CC(NCc1ccccc1O)C12CC3CC(CC(C3)C1)C2 (centres unmarked) [MLS001173343], CC(C(=O)N1CCCC1)N1CCN(S(=O)(=O)c2ccc(C(C)(C)C)cc2)CC1 (centres unmarked) [MLS002156464] is lower in viability at 3 µM: 97.5% for the first, 92.8% for the second.

Compared with C=C(C)CSc1nc2sc3c(c2c(=O)n1-c1ccccc1)CCN(C)C3 [MLS001173616], COc1cccc(-c2c(C#N)c(N)nc3c2c(C)nn3-c2ccccc2)c1O [MLS001214341] is lower in viability at 3 µM: 98.7% for the first, 90.5% for the second.

Going from CC(C)c1ccccc1OCC(O)CN(CC(O)COc1cccc2ccccc12)C(C)C (centres unmarked) [MLS001179995] to CN(C)CCCn1cnc2c(c1=N)C(c1ccccc1)c1ccc3ccccc3c1O2 (centres unmarked) [MLS001216375], the viability at 3 µM rises from 100% to 106%.

Compared with COC(=O)C1=CN(Cc2ccc(OC)cc2)C=C(C(=O)OC)C1c1cc(OC)c(OC)c(OC)c1 [MLS001197127], COc1cc(OC)c(NC2=CC(=O)C(=O)c3ccccc32)cc1Cl [MLS001198657] is lower in viability at 3 µM: 105% for the first, 62% for the second.

First: CCOc1cccc(CNCCc2c(C)[nH]c3ccc(OC(F)(F)F)cc23)c1O [MLS001198351]
Second: COc1cc(Cl)c(NC2=CC(=O)C(=O)c3ccccc32)c(OC)c1 [MLS001360325]
The viability at 3 µM of the first is higher: 70.5% for the first, 65.1% for the second.

Going from COc1cc2nc(Nc3ccc(C)c(C)c3)nc(N)c2cc1OC [MLS001199689] to CC(=O)Nc1ccc(Nc2cc(C)nc(Nc3ccc(NC(C)=O)cc3)n2)cc1 [MLS001359830], the viability at 3 µM falls from 102% to 93.2%.

First: O=C(N/N=C(/c1ccccc1)c1cccnc1)c1cccc(F)c1 [MLS001224623]
Second: C/C(=N\NC(=O)c1cccc(Br)c1)c1ccccn1 [MLS001232242]
The viability at 3 µM of the first is lower: 32% for the first, 81.3% for the second.

Going from O=C(Nc1ccncc1)Nc1cccc(Cl)c1Cl [MLS001224778] to O=C(c1ccc([N+](=O)[O-])o1)N1CCN(c2nc3c(Cl)cccc3s2)CC1 [MLS001234208], the viability at 3 µM falls from 96.5% to 90.1%.

Compared with COc1cccc2sc(N3CCN(C(=O)c4ccc([N+](=O)[O-])o4)CC3)nc12 [MLS001234267], Cc1ccc(C)c2sc(N3CCN(C(=O)c4ccc([N+](=O)[O-])o4)CC3)nc12 [MLS001234268] is higher in viability at 3 µM: 93.6% for the first, 94.7% for the second.

First: O=C(O)c1cc(-c2ccccc2)cc(-c2ccccc2)[n+]1Cc1ccccc1 [MLS001240915]
Second: O[C@@H]1[C@@H](O)C=C2CCN3Cc4cc5c(cc4[C@H]1C23)OCO5 (some centres unmarked) [MLS002153955]
The viability at 3 µM of the first is higher: 98.5% for the first, 77.4% for the second.
